Assay results from patent publication US10759796B2, “CXCR4 inhibitors and uses thereof” (X4 Pharmaceuticals, Inc., priority 2016, dated 2020).
Like-named read-outs stand apart in the source and are kept apart here.

Tests used:
[1] = target: CXCR-4 transfected U87 cell line (U87.CXCR4) (Homo sapiens (Human), UniProt P61073); test: Intracellular CXCL-12-induced calcium mobilization assay (FLIPR); format: cell-based; conditions: U87.CXCR4 cells, CXCL-12 25-50 ng/mL; read-out: IC50 CXCL-12 Ca2+ flux U87.CXCR4+
Method in brief: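 U87.CXCR4 cells were seeded at 20,000 per well, cultured 12 hours, then loaded with 4 μM Fluo-2 AM for 45 min at 37° C. in HBSS with 20 mM HEPES and 0.2% BSA, pH 7.4. Calcium flux triggered by CXCL-12 (25-50 ng/mL) was tracked over time by FLIPR fluorescence at 37° C.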

[2] = target: Jurkat cells expressing CXCR4 (Homo sapiens (Human), UniProt P61073); test: Chemokine (CXCL12-AF647) binding inhibition assay; conditions: CXCL12-AF647 25 ng/mL, read-out: IC50 CXCL-12 binding Jurkat
Method in brief: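 Cells in HBSS, 20 mM HEPES, 0.2% BSA, pH 7.4, preincubated 15 min at room temperature with compound, then 25 ng/mL CXCL12-AF647 for 30 min. After washing and paraformaldehyde fixation, bound ligand read by flow cytometry; percent inhibition calculated from MFI relative to unlabeled and ligand-only controls.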

[3] = Fraction of drug unbound to plasma proteins, mouse; format: in vitro ADME; conditions: Mouse plasma proteins (Table 10); read-out: Fu (p) %
[4] = Mouse brain uptake assay, 0-24 h, 4 time points; format: in vivo; conditions: male, 3 mg/kg IV, 4 time points
Procedure: The study design (9 animals) consisted of administrating the drug (IV: 3 mg/kg (5 mL/kg) via tail vein injection) and collecting samples at terminal bleeding for plasma and brain at 0.083, 0.5 and 1 h. The blood collection was performed as follows: the animal was restrained manually and approximately 150 μL blood/time point was collected into a dipotassium EDTA tube via retro orbital puncture under anesthesia with isoflurane. The blood sample was put on ice and centrifuged to obtain a plasma sample (2000 g, 5 min under 4° C.) within 15 minutes. The brain collection was performed as follows: a mid-line incision was made in the animal's scalp and the skin was retracted. Using small bone cutters and rongeurs, the skull overlying the brain was removed. The brain was removed using a spatula and the brain rinsed with cold saline. The brain was placed in screw-top tubes, and the tubes were stored at −70° C. until analysis. The IV dosing solution was prepared in 50 mM citrate buffer (pH 4.0) at 0.6 mg/mL.
An aliquot of 30 μL sample was added to 150 μL MeCN containing 50 ng/mL IS (Dexamethasone). The mixture was vortexed for 5 min and centrifuged at 14,000 rpm for 5 min. An aliquot of 5 μL supernatant was injected for LC-MS/MS analysis.
An aliquot of 30 μL brain homogenate (brain:PBS=1:3, w/v) sample was added to 150 μL IS in ACN (Dexamethasone, 50 ng/mL). The mixture was vortexed for 5 min and centrifuged at 14,000 rpm for 5 min. An aliquot of 5 μL supernatant was injected for LC-MS/MS analysis.
The sample analysis was performed on LCMS/MS-003 (API4000, triple quadruple) under the following conditions: positive ion, ESI, MRM detection using dexamethasone as internal standard. HPLC conditions: mobile phase A: H2O (0.025% formic acid (FA) with 1 mM NH4OAc); mobile phase B: MeOH (0.025% FA with 1 mM NH4OAc) on Waters X-Bridge C18 (2.1×50 mm, 2.5 μm) column at 60° C.
A similar experiment was performed with 4 time points taken from 0-24 h.

[5] = in vitro; conditions: human, Caco-2, pH 7.4
Method in brief: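 Compounds at 10 μM in HBSS pH 7.4 (0.1–0.3% DMSO) were dosed on Caco-2 monolayers, apical-to-basolateral and basolateral-to-apical, for 90 min at 37 °C, in duplicate. Monolayer integrity was checked by TEER and lucifer yellow flux, read by fluorescence at 485/535 nm. Compound was quantified by LC-MS/MS and Papp calculated.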

[6] = Fraction of drug unbound to brain proteins, mouse; format: in vitro ADME; conditions: Mouse brain proteins (Table 10); read-out: Fu (b) %

CXCR-4 transfected U87 cell line (U87.CXCR4), sequence (P61073 whole entry): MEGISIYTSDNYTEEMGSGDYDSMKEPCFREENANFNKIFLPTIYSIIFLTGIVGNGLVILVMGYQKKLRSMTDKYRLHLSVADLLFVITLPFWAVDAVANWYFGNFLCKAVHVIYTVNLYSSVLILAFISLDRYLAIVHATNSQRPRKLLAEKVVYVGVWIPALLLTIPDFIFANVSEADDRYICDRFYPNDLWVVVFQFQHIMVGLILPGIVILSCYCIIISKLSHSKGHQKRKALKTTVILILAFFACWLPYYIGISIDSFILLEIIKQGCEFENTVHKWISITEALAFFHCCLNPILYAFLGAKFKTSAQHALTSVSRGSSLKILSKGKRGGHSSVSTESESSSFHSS
Jurkat cells expressing CXCR4, sequence (P61073 whole entry): as above

Cc1c([C@@H]2CCC[C@H](c3ncccc3Cl)N2)nc2cccc(N3CCN(C)CC3)n12 (stereo in doubt) [Compound I-193]
IC50 [1]: 0.01 to 100 nM
IC50 [2]: 0.01 to 100 nM
fraction unbound [3]: 0.047
AUC(0-t) ([4]; CD1, Mouse brain, read-out: AUClast (b)): 13700 ng·h/mL
AUC(0-t) ([4]; CD1, Mouse plasma, read-out: AUClast (p)): 2130 ng·h/mL
Kp ([4]; CD1, brain and plasma, Mouse): 6.41
Kp uu ([4]; CD1, brain and plasma, Mouse): 0.54
clearance ([4]; CD1, plasma, Mouse): 22 mL/min/kg
half-life ([4]; CD1, plasma, Mouse, read-out: t½ (converted)): 6.42 h
Papp A→B at 90 min, 10 μM [5]: 10 to 30 ×10⁻⁶ cm/s
Papp B→A at 90 min, 10 μM [5]: 10 to 30 ×10⁻⁶ cm/s
efflux ratio at 90 min, 10 μM [5]: 0.1 to 10
fraction unbound [6]: 0.004
